These results are taken from patent publication US8034803B2, “Photodynamic therapy of occult age-related macular degeneration” (QLT Inc., priority 2001, dated 2011).

The subject of experiment [1] is occult choroidal neovascular lesions. As to the kind of experiment: Verteporfin PDT of occult CNV lesions versus placebo, best corrected visual acuity at 24 months. The class given is in vivo, human. The method, then: Subjects having, suspected of having, or otherwise afflicted with occult neovascular lesions were evaluated for best corrected visual acuity as outlined in Example 1, and their lesion size determined angiographically as outlined in Example 2. […] The greatest linear dimension of the entire CNV lesion was […], corresponding to 9 Disc Areas. Subjects were evaluated for visual acuity and lesion size about 1 week prior to treatment. Subjects were randomly assigned to a treatment group and a placebo group.
For each subject in the treatment group, a 15 mg-vial of liposomally-formulated verteporfin (Verteporfin for Injection (Visudyne™) was reconstituted with 7 mL of sterile water for injection to provide 7.5 mL containing a final concentration of 2 mg/mL. The volume of reconstituted drug required to achieve a dose of 6 mg/M^2 (based upon the height and weight of the subject, calculated from a nomogram) was withdrawn from the vial and diluted with 5% dextrose for injection to make a total infusion volume of 30 mL. The full infusion volume was administered intravenously over 10 minutes using an appropriate syringe pump and in-line filter. Fifteen minutes after the start of the infusion, light was administered to the lesion from a diode laser through a fiber optic delivered via a slit lamp, and utilizing a suitable lens. A light dose of 50J/cm^2 was applied at a fluency rate of 600 mW/cm^2, 50J/cm^2 (83 second exposure).
Subjects were evaluated by fluorescein angiography approximately every three months, and their best corrected visual acuity was assessed. Subjects were retreated if evidence of CNV leakage was detected by fluorescein angiography.

Experiment [2] concerns CNV lesions classified as predominantly classic or minimally classic. Particulars: cited from earlier work.
[3] abbreviates: baseline visual acuity <65 letters, lesion size all, 24 months.
The mark [4] stands for this setting: baseline visual acuity <65 letters, lesion size ≦4DA, 24 months.
[5] abbreviates: baseline visual acuity <65 letters, lesion size ≧4DA, 24 months.
The mark [6] stands for this setting: baseline visual acuity ≧65 letters, lesion size all, 24 months.
The mark [7] stands for this setting: baseline visual acuity ≧65 letters, lesion size ≦4DA, 24 months.
The mark [8] stands for this setting: baseline visual acuity ≧65 letters, lesion size ≧4DA, 24 months.

Read-outs that look alike come from different tables or passages of the source.

In the case of verteporfin, the “30 Letter Response Rate (percent of subjects losing less than 30 letters) Difference V-P” value in experiment [1] (setting [3]) was 27.5%; in experiment [1] (setting [4]), 19.4%; in experiment [1] (setting [5]) it was 30.0%; in experiment [1] (setting [6]), 8.5%; in experiment [1] (setting [7]), 26.8%; in experiment [1] (setting [8]) it was −5.3%. In addition, the “Mean VA Difference” value is listed as 11.7 in experiment [1] (setting [3]); 12.3 in experiment [1] (setting [4]); 9.4 in experiment [1] (setting [5]); 1.5 in experiment [1] (setting [6]); 9.3 in experiment [1] (setting [7]); −3.3 in experiment [1] (setting [8]). Further, the “15 Letter Response Rate (percent of subjects losing less than 15 letters) Difference V-P” value in experiment [1] (baseline visual acuity <65 letters, lesion size all, 24 months after initial treatment, 6 mg/M^2 i.v., 50 J/cm^2) was 33.8%; in experiment [1] (setting [4]), 43.8%; in experiment [1] (setting [5]) it was 21.5%; in experiment [1] (setting [6]), −3.9%; in experiment [1] (setting [7]) it was 12.5%; in experiment [1] (setting [8]), −24%. Besides, the “response of subjects having occult lesions to PDT” value in experiment [1] (study of Example 3, in words) is recorded as “respond to PDT”. Moreover, the “treatment benefit with verteporfin PDT” value was “did not” in experiment [2] (lesions classified as minimally classic) and “large treatment benefit” in experiment [2] (lesions classified as predominantly classic).
